Converted amounts (≈) assume the structure as drawn.
Tested on: Trichophyton rubrum
Assay: In vitro antifungal activity against Trichophyton rubrum after 7 days by serial dilution method
Assay type: functional
Conditions: 168 h

Compound | MIC80
OC(Cn1cncn1)(Cn1cncn1)c1ccc(F)cc1F [FLUCONAZOLE] | 1 µg/mL (≈ 3.27 µM)
C[C@@H](c1ncncc1F)[C@](O)(Cn1cncn1)c1ccc(F)cc1F [VORICONAZOLE] | 0.0312 µg/mL (≈ 0.0895 µM)
CC(=O)N1CCN(c2ccc(OCC3COC(Cn4ccnc4)(c4ccc(Cl)cc4Cl)O3)cc2)CC1 (stereo not drawn) [KETOCONAZOLE] | 0.5 µg/mL (≈ 0.941 µM)

Tested on: not listed separately
Assay: Cytotoxicity against HEK293 cells after 43 hrs by Alamar blue dye-based fluorescence assay
Assay type: cell-based
Conditions: human

Compound | CC50 at 43 h
C[C@@H]1[C@H](O)[C@@H](C)/C=C/C=C/C=C/C=C/C=C/C=C/C=C/[C@H](O[C@@H]2O[C@H](C)[C@@H](O)[C@H](N)[C@@H]2O)C[C@@H]2O[C@](O)(C[C@@H](O)C[C@@H](O)[C@H](O)CC[C@@H](O)C[C@@H](O)CC(=O)O[C@H]1C)C[C@H](O)[C@H]2C(=O)O [AMPHOTERICIN B] | 4200 nM
CN(C/C=C/c1ccc(Cl)cc1)Cc1coc2ccccc12 | 42100 nM
CN(C/C=C/c1ccc(Br)cc1)Cc1coc2ccccc12 | 41900 nM

Tested on: HepG2
Assay: Cytotoxicity against human HepG2 cells after 43 hrs by Alamar blue dye-based fluorescence assay
Assay type: cell-based
Conditions: HepG2, 43 h

Compound | IC50
C[C@@H]1[C@H](O)[C@@H](C)/C=C/C=C/C=C/C=C/C=C/C=C/C=C/[C@H](O[C@@H]2O[C@H](C)[C@@H](O)[C@H](N)[C@@H]2O)C[C@@H]2O[C@](O)(C[C@@H](O)C[C@@H](O)[C@H](O)CC[C@@H](O)C[C@@H](O)CC(=O)O[C@H]1C)C[C@H](O)[C@H]2C(=O)O [AMPHOTERICIN B] | 3100 nM
CN(C/C=C/c1ccc(Cl)cc1)Cc1coc2ccccc12 | 60200 nM
CN(C/C=C/c1ccc(Br)cc1)Cc1coc2ccccc12 | 33000 nM

Tested on: Trichophyton mentagrophytes
Assay: In vitro antifungal activity against Trichophyton mentagrophytes after 7 days by serial dilution method
Assay type: functional
Conditions: 168 h

Compound | MIC80
OC(Cn1cncn1)(Cn1cncn1)c1ccc(F)cc1F [FLUCONAZOLE] | 2 µg/mL (≈ 6.53 µM)
C[C@@H](c1ncncc1F)[C@](O)(Cn1cncn1)c1ccc(F)cc1F [VORICONAZOLE] | 0.0312 µg/mL (≈ 0.0895 µM)
CC(=O)N1CCN(c2ccc(OCC3COC(Cn4ccnc4)(c4ccc(Cl)cc4Cl)O3)cc2)CC1 (stereo not drawn) [KETOCONAZOLE] | 0.0625 µg/mL (≈ 0.118 µM)

Tested on: Nannizzia gypsea
Assay: In vitro antifungal activity against Microsporum gypseum after 7 days by serial dilution method
Assay type: functional
Conditions: 168 h

Compound | MIC80
OC(Cn1cncn1)(Cn1cncn1)c1ccc(F)cc1F [FLUCONAZOLE] | 8 µg/mL (≈ 26.1 µM)
C[C@@H](c1ncncc1F)[C@](O)(Cn1cncn1)c1ccc(F)cc1F [VORICONAZOLE] | 0.25 µg/mL (≈ 0.716 µM)
CC(=O)N1CCN(c2ccc(OCC3COC(Cn4ccnc4)(c4ccc(Cl)cc4Cl)O3)cc2)CC1 (stereo not drawn) [KETOCONAZOLE] | 2 µg/mL (≈ 3.76 µM)

Biological target: T1, 4,4'-diapophytoene desaturase (4,4'-diaponeurosporene-forming) (Staphylococcus aureus (strain Newman), UniProt O07855)
T1 sequence (O07855 whole entry): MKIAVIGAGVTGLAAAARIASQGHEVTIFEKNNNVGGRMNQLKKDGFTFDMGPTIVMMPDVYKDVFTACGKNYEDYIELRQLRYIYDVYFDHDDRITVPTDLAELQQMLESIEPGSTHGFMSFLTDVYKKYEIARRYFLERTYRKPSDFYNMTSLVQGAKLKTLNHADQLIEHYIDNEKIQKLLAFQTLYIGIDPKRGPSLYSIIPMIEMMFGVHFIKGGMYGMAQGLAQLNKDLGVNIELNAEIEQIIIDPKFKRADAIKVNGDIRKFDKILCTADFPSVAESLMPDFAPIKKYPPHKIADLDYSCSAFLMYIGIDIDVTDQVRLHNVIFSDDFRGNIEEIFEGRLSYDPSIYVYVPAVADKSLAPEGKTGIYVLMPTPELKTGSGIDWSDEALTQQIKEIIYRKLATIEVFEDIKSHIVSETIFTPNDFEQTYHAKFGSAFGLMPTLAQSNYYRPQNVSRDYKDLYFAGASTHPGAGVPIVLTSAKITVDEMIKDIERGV
Assay: Inhibition of CrtN in Staphylococcus aureus Newman assessed as reduction in staphyloxanthin levels after 48 hrs by spectrophotometric method-based pigment inhibition assay
Parameters: species or system Staphylococcus aureus subsp. aureus str. Newman
Conditions: not given

Compound | IC50
CN(C/C=C/c1cccc([N+](=O)[O-])c1)Cc1cccc2cc[nH]c12 | > 1000 nM
CN(C/C=C/c1ccccc1Cl)Cc1cccc2cc[nH]c12 | > 1000 nM
CN(C/C=C/c1ccc(Cl)cc1Cl)Cc1cccc2cc[nH]c12 | 280 nM
COc1ccc(/C=C/CN(C)Cc2cccc3cc[nH]c23)cc1F | > 1000 nM
CN(C/C=C/c1cccc(C(F)(F)F)c1)Cc1coc2ccccc12 | > 1000 nM
C/C(=C\c1ccc(-c2ccccc2)cc1)CN(C)Cc1cccc2cc[nH]c12 | > 1000 nM
CN(C/C=C/c1ccc(C(F)(F)F)cc1F)Cc1cccc2cc[nH]c12 | 48.4 nM
CCN(C/C=C/c1ccc(C(F)(F)F)cc1)Cc1cccc2cc[nH]c12 | 118 nM
CN(C/C=C/c1cccc(F)c1)Cc1cccc2cc[nH]c12 | > 1000 nM
COC(=O)c1ccc(/C=C/CN(C)Cc2coc3ccccc23)cc1 | 9.5 nM
CN(C/C=C/c1ccc2ccccc2c1)Cc1coc2ccccc12 | 6.4 nM
CCOc1ccc(/C=C/CN(C)Cc2cccc3cc[nH]c23)cc1 | 64.8 nM
COc1ccccc1/C=C/CN(C)Cc1cccc2cc[nH]c12 | > 1000 nM
CN(C/C=C/C1CCCC1)Cc1cccc2cc[nH]c12 | > 1000 nM
COc1ccccc1/C=C/CN(C)Cc1coc2ccccc12 | > 1000 nM
CN(C/C=C/c1ccc(Br)cc1)Cc1cccc2cc[nH]c12 | 83.8 nM
CN(C/C=C/c1cccc(C(F)(F)F)c1)Cc1cccc2cc[nH]c12 | > 1000 nM
CN(C/C=C/c1ccc(Cl)cc1)Cc1cccc2cc[nH]c12 | 143 nM
COc1cccc(/C=C/CN(C)Cc2coc3ccccc23)c1 | > 1000 nM
CN(C/C=C/c1cccc(Cl)c1)Cc1coc2ccccc12 | > 1000 nM
CN(C/C=C/c1ccc(Cl)cc1Cl)Cc1coc2ccccc12 | 6.2 nM
CN(C/C=C/C1CCCCC1)Cc1coc2ccccc12 | > 1000 nM
CN(C/C=C/c1ccc(C#N)cc1)Cc1cccc2cc[nH]c12 | 785 nM
CN(C/C=C/c1ccc(C(C)(C)C)cc1)Cc1cccc2cc[nH]c12 | 700 nM

Compound | IC50
CN(C/C=C/c1ccc(C(F)(F)F)cc1)Cc1ccc2[nH]ccc2c1 | 62.8 nM
FC(F)(F)c1ccc(/C=C/CNCC2=COC3C=CC=CC23)cc1 (stereo not drawn) | > 1000 nM
CN(C/C=C/c1ccc(C(F)(F)F)cc1)Cc1cc2ccccc2s1 | 102 nM
CN(C/C=C/c1ccc(C(F)(F)F)cc1)Cc1csc2ccccc12 | > 1000 nM
CN(C/C=C/C1CCCCC1)Cc1cccc2cc[nH]c12 | > 1000 nM
CN(C/C=C/c1ccccc1)Cc1cccc2cc[nH]c12 | > 1000 nM
CC(C)N(C/C=C/c1ccc(C(F)(F)F)cc1)CC1=COC2C=CC=CC12 (stereo not drawn) | > 1000 nM
CN(C/C=C/c1ccc2ccccc2c1)Cc1cccc2cc[nH]c12 | 132 nM
CN(CCCc1ccc(-c2ccccc2)cc1)Cc1cccc2cc[nH]c12 | > 1000 nM
CN(C/C=C/c1ccc(F)cc1)Cc1coc2ccccc12 | 74.1 nM
CN(C/C=C/c1ccc(C(F)(F)F)cc1)Cc1cccc2[nH]ccc12 | 89.6 nM
CN(C/C=C/c1ccccc1[N+](=O)[O-])Cc1cccc2cc[nH]c12 | > 1000 nM
C/C=C/CN(C)Cc1cccc2cc[nH]c12 | > 1000 nM
CN(C/C=C/c1ccc(C(F)(F)F)c(F)c1)Cc1cccc2cc[nH]c12 | > 1000 nM
Cc1ccccc1/C=C/CN(C)Cc1cccc2cc[nH]c12 | > 1000 nM
CN(C/C=C/c1ccc(C(F)(F)F)cc1)Cc1cccc2cc[nH]c12 | 50.2 nM
Cc1ccc(/C=C/CN(C)Cc2cccc3cc[nH]c23)cc1 | 199 nM
COc1cccc(/C=C/CN(C)Cc2cccc3cc[nH]c23)c1 | > 1000 nM
CN(C/C=C/c1ccc(C(F)(F)F)cc1)Cc1ccc2cc[nH]c2c1 | 64.3 nM
CN(C/C=C/c1ccccc1C(F)(F)F)Cc1coc2ccccc12 | > 1000 nM
FC(F)(F)c1ccc(/C=C/CNCc2cccc3cc[nH]c23)cc1 | > 1000 nM
CN(CC/C=C/c1ccc(-c2ccccc2)cc1)Cc1coc2ccccc12 | > 1000 nM
CN(C/C=C/c1ccc([N+](=O)[O-])cc1)Cc1cccc2cc[nH]c12 | > 1000 nM
CN(C/C=C/c1ccco1)Cc1coc2ccccc12 | > 1000 nM

Compound | IC50
CN(C/C=C/c1cccc([N+](=O)[O-])c1)Cc1coc2ccccc12 | > 1000 nM
Cc1cccc(/C=C/CN(C)Cc2cccc3cc[nH]c23)c1 | > 1000 nM
CN(CC#Cc1ccc(-c2ccccc2)cc1)Cc1cccc2cc[nH]c12 | 102 nM
CN(C/C=C/c1ccc(C#N)cc1)Cc1coc2ccccc12 | 80.1 nM
CN(C/C=C/c1ccc(F)cc1)Cc1cccc2cc[nH]c12 | > 1000 nM
CN(C/C=C/c1ccc(C(F)F)cc1)Cc1coc2ccccc12 | 6.4 nM
CN(C/C=C/c1ccc(C(C)(C)C)cc1)Cc1coc2ccccc12 | > 1000 nM
CN(C/C=C/c1cccc(F)c1)Cc1coc2ccccc12 | > 1000 nM
CN(C/C=C/C1CCCC1)Cc1coc2ccccc12 | 397 nM
Cc1cccc(/C=C/CN(C)Cc2coc3ccccc23)c1 | > 1000 nM
CN(C/C=C/c1cccc(Cl)c1)Cc1cccc2cc[nH]c12 | > 1000 nM
CN(C/C=C/c1ccccc1F)Cc1cccc2cc[nH]c12 | > 1000 nM
CN(C/C=C/c1ccco1)Cc1cccc2cc[nH]c12 | > 1000 nM
COc1ccc(/C=C/CN(C)Cc2coc3ccccc23)cc1F | > 1000 nM
CN(C/C=C/c1ccc(C(F)(F)F)cc1)Cc1cc2ccccc2o1 | 73.2 nM
CN(C/C=C/c1cccs1)Cc1cccc2cc[nH]c12 | > 1000 nM
CN(C/C=C/c1ccccc1[N+](=O)[O-])Cc1coc2ccccc12 | 74.1 nM
CN(C/C=C/c1ccccc1Cl)Cc1coc2ccccc12 | 360 nM
CN(C/C=C/c1ccccc1)Cc1coc2ccccc12 | > 1000 nM
CN(C/C=C/c1ccc([N+](=O)[O-])cc1)Cc1coc2ccccc12 | 9.5 nM
CN(C/C=C/c1ccccc1C(F)(F)F)Cc1cccc2cc[nH]c12 | > 1000 nM
COc1ccc(/C=C/CN(C)Cc2cccc3cc[nH]c23)cc1 | 167 nM
CN(C/C=C/c1ccc(C(F)(F)F)c(F)c1)Cc1coc2ccccc12 | > 1000 nM
CN(C/C=C/c1ccc(C(F)(F)F)cc1)Cc1c[nH]c2ccccc12 | > 1000 nM

Compound | IC50
COc1ccc(/C=C/CN(C)Cc2cccc3cc[nH]c23)c(F)c1 | 73.1 nM
COC(=O)c1ccc(/C=C/CN(C)Cc2cccc3cc[nH]c23)cc1 | 87.8 nM
COc1ccc(/C=C/CN(C)Cc2coc3ccccc23)c(F)c1 | > 1000 nM
CN(C/C=C/c1cccs1)Cc1coc2ccccc12 | > 1000 nM
CN(C/C=C/c1ccc(C(F)F)cc1)Cc1cccc2cc[nH]c12 | 43.5 nM
CC(C)N(C/C=C/c1ccc(C(F)(F)F)cc1)Cc1cccc2cc[nH]c12 | > 1000 nM
CN(C/C=C/C=C/c1ccc(-c2ccccc2)cc1)Cc1coc2ccccc12 | > 1000 nM
CCN(C/C=C/c1ccc(C(F)(F)F)cc1)CC1=COC2C=CC=CC12 (stereo not drawn) | > 1000 nM
CCOc1ccc(/C=C/CN(C)Cc2coc3ccccc23)cc1 | > 1000 nM
CN(C/C=C/c1ccc(C(F)(F)F)cc1F)Cc1coc2ccccc12 | 9.2 nM
CN(C/C=C/c1ccccc1F)Cc1coc2ccccc12 | > 1000 nM
C/C(=C\c1ccc(-c2ccccc2)cc1)CN(C)Cc1coc2ccccc12 | > 1000 nM
Cc1ccccc1/C=C/CN(C)Cc1coc2ccccc12 | 86.4 nM
CN(C/C=C/c1cccc2ccccc12)Cc1coc2ccccc12 | > 1000 nM
CN(CC#Cc1ccc(-c2ccccc2)cc1)Cc1coc2ccccc12 | > 1000 nM
CN(C/C=C/c1cccc2ccccc12)Cc1cccc2cc[nH]c12 | > 1000 nM
CN(C/C=C/c1ccc(C(F)(F)F)cc1)Cc1coc2ccccc12 | 9.8 nM
CN(C/C=C/c1ccc(C(F)(F)F)cc1)Cc1cc2ccccc2[nH]1 | > 1000 nM
CN(CCCc1ccc(-c2ccccc2)cc1)Cc1coc2ccccc12 | > 1000 nM
CN(C/C=C/c1ccc(Cl)cc1)Cc1coc2ccccc12 | 4.9 nM
CN(C/C=C/c1ccc(Br)cc1)Cc1coc2ccccc12 | 2.5 nM
C/C=C/CN(C)Cc1coc2ccccc12 | 91.3 nM
Cc1ccc(/C=C/CN(C)Cc2coc3ccccc23)cc1 | 9.9 nM

Tested on: Trichophyton verrucosum
Assay: In vitro antifungal activity against Trichophyton verrucosum after 7 days by serial dilution method
Assay type: functional
Conditions: 168 h

Compound | MIC80
OC(Cn1cncn1)(Cn1cncn1)c1ccc(F)cc1F [FLUCONAZOLE] | 2 µg/mL (≈ 6.53 µM)
C[C@@H](c1ncncc1F)[C@](O)(Cn1cncn1)c1ccc(F)cc1F [VORICONAZOLE] | 0.0312 µg/mL (≈ 0.0895 µM)
CC(=O)N1CCN(c2ccc(OCC3COC(Cn4ccnc4)(c4ccc(Cl)cc4Cl)O3)cc2)CC1 (stereo not drawn) [KETOCONAZOLE] | 0.0625 µg/mL (≈ 0.118 µM)

Source: ChEMBL document CHEMBL4024779, “Novel Terminal Bipheny-Based Diapophytoene Desaturases (CrtN) Inhibitors as Anti-MRSA/VISR/LRSA Agents with Reduced hERG Activity” (J Med Chem, 2018)
